Measured values taken from patent publication US20100298141A1, “SUBSTITUTED PYRIDINE N-OXIDE HERBICIDES” (E. I. DU PONT DE NEMOURS AND COMPANY, priority 2007, published 2010).

Key:
Surinam grass = experiment: Test C pre-/postemergence test; format: in vivo, Brachiaria decumbens
How it was run: (§1)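 Seeds were planted and treated preemergence with test chemical in a non-phytotoxic solvent mixture containing surfactant. Postemergence applications of the same formulation went onto plants 2 to 18 cm tall (1- to 4-leaf stage). A dash marks no test result.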

blackgrass = experiment: Test C pre-/postemergence test; format: in vivo, Alopecurus myosuroides
How it was run: as §1

duck salad = experiment: Test C flooded paddy test; format: in vivo, Heteranthera limosa; details: Flood
How it was run: (§2)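 Visual injury ratings against untreated controls, taken 13 to 15 days after compound was added to paddy water standing 3 cm above the soil.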

barnyardgrass [1] = experiment: Test A pre-/postemergence greenhouse test; format: in vivo, Echinochloa crus-galli; details: for Plant response rating, Barnyardgrass: 0 to 100 scale where 0 is no effect and 100 is complete control; for Barnyardgrass plant response rating: 0 to 100 scale
How it was run: (§3)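 Visual injury ratings, made relative to untreated controls roughly ten days after treatment, cover both preemergence and postemergence application. Compounds in a surfactant-containing non-phytotoxic solvent were sprayed onto the soil surface after sowing and, simultaneously, onto young plants at the one- to two-leaf stage.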

soybean = experiment: Test C pre-/postemergence test; format: in vivo, Glycine max; details: for Plant response rating (0 to 100), Soybean / Plant response rating, Soybean: Postemergence; for Plant response rating, Soybean: scale 0 to 100, 0 no effect, 100 complete control
How it was run: as §1

barnyardgrass [2] = experiment: Test C flooded paddy test; format: in vivo, Echinochloa crus-galli; details: Flood
How it was run: as §2

velvetleaf [3] = experiment: Test C pre-/postemergence test; format: in vivo, Abutilon theophrasti
How it was run: as §1

velvetleaf [4] = experiment: Test A pre-/postemergence greenhouse test; format: in vivo, Abutilon theophrasti; details: for Plant response rating, Velvetleaf: 0 to 100 scale where 0 is no effect and 100 is complete control; for Velvetleaf plant response rating: 0 to 100 scale
How it was run: as §3

giant foxtail = experiment: Test A pre-/postemergence greenhouse test; format: in vivo, Setaria faberi; details: for Plant response rating, Foxtail, Giant: 0 to 100 scale where 0 is no effect and 100 is complete control; for Foxtail, Giant plant response rating: 0 to 100 scale
How it was run: as §3

common ragweed = experiment: Test C pre-/postemergence test; format: in vivo, Ambrosia elation
How it was run: as §1

woolly cupgrass = experiment: Test C pre-/postemergence test; format: in vivo, Eriochloa villosa
How it was run: as §1

downy brome = experiment: Test C pre-/postemergence test; format: in vivo, Bromus tectorum; details: for Plant response rating, Bromegrass, Downy: scale 0 to 100, 0 no effect, 100 complete control
How it was run: as §1

green foxtail = experiment: Test C pre-/postemergence test; format: in vivo, Setaria viridis
How it was run: as §1

pigweed = experiment: Test C pre-/postemergence test; format: in vivo, Amaranthus retroflexus
How it was run: as §1

crabgrass = experiment: Test A pre-/postemergence greenhouse test; format: in vivo, Digitaria sanguinalis; details: for Plant response rating, Crabgrass, Large: 0 to 100 scale where 0 is no effect and 100 is complete control; for Crabgrass, Large plant response rating: 0 to 100 scale
How it was run: as §3

lambsquarters = experiment: Test C pre-/postemergence test; format: in vivo, Chenopodium album
How it was run: as §1

[5] = Postemergence, 125 g ai/ha, scale 0 to 100, 0 no effect, 100 complete control
[6] = Postemergence, 250 g ai/ha, scale 0 to 100, 0 no effect, 100 complete control
[7] = Postemergence, 62 g ai/ha, scale 0 to 100, 0 no effect, 100 complete control
[8] = 62 g ai/ha, scale 0 to 100 (0 no effect, 100 complete control)
[9] = 250 g ai/ha, scale 0 to 100, 0 no effect, 100 complete control, 13 to 15 days
[10] = Postemergence, 500 g ai/ha, 0 is no effect, 100 is complete control
[11] = Preemergence, 125 g ai/ha, 0 no effect, 100 complete control
[12] = 62 g ai/ha, Preemergence, scale 0 to 100
[13] = 125 g ai/ha, preemergence, scale 0 (no effect) to 100 (complete control)
[14] = Preemergence, 31 g ai/ha, scale 0 to 100 (0 no effect, 100 complete control)
[15] = preemergence, 250 g ai/ha, scale 0 (no effect) to 100 (complete control)

SMILES: CCn1nc(C(F)(F)F)c(C(C)S(=O)(=O)c2cccc[n+]2[O-])c1OCC(F)(F)F (stereo not shown) [Compound 69]
- Plant response rating (0 to 100), Surinam Grass (Surinam grass; Postemergence, 31 g ai/ha): 0
- Plant response rating (0 to 100), Surinam Grass (Surinam grass; Postemergence, 62 g ai/ha): 0
- Plant response rating, Surinam Grass (Surinam grass; [5]): 0
- Plant response rating, Surinam Grass (Surinam grass; [6]): 0
- Plant response rating (0 to 100), Blackgrass (blackgrass; Postemergence, 31 g ai/ha): 0
- Plant response rating, Blackgrass (blackgrass; [7]): 0
- Plant response rating, Blackgrass (blackgrass; [5]): 85
- Plant response rating, Blackgrass (blackgrass; [6]): 95
- Plant response rating, Ducksalad (duck salad; [8]): 70
- Plant response rating, Ducksalad (duck salad; [9]): 100
- Plant response rating, Barnyardgrass (barnyardgrass [1]; Postemergence, 125 g ai/ha): 80
- Barnyardgrass plant response rating (barnyardgrass [1]; [10]): 90
- Barnyardgrass plant response rating (barnyardgrass [1]; [11]): 60
- Plant response rating, Barnyardgrass (barnyardgrass [1]; Preemergence, 500 g ai/ha): 100
- Plant response rating (0 to 100), Soybean (soybean; 31 g ai/ha): 0
- Plant response rating (0 to 100), Soybean (soybean; 62 g ai/ha): 30
- Plant response rating, Soybean (soybean; 125 g ai/ha): 30
- Plant response rating, Soybean (soybean; 250 g ai/ha): 35
- Plant response rating, Barnyardgrass (barnyardgrass [2]; [8]): 0
- Plant response rating, Barnyardgrass (barnyardgrass [2]; [9]): 75
- Plant response rating (0 to 100), Velvetleaf (velvetleaf [3]; Postemergence, 31 g ai/ha): 0
- Plant response rating (0 to 100), Velvetleaf (velvetleaf [3]; Postemergence, 62 g ai/ha): 0
- Plant response rating, Velvetleaf (velvetleaf [3]; [5]): 0
- Plant response rating, Velvetleaf (velvetleaf [3]; [6]): 0
- Plant response rating, Velvetleaf (velvetleaf [4]; Postemergence, 125 g ai/ha): 50
- Velvetleaf plant response rating (velvetleaf [4]; [10]): 80
- Velvetleaf plant response rating (velvetleaf [4]; [11]): 10
- Plant response rating, Velvetleaf (velvetleaf [4]; Preemergence, 500 g ai/ha): 100
- Plant response rating, Foxtail, Giant (giant foxtail; Postemergence, 125 g ai/ha): 80
- Foxtail, Giant plant response rating (giant foxtail; [10]): 100
- Foxtail, Giant plant response rating (giant foxtail; [11]): 100
- Plant response rating, Foxtail, Giant (giant foxtail; Preemergence, 500 g ai/ha): 100
- Plant response rating (0 to 100), Ragweed (common ragweed; Postemergence, 31 g ai/ha): 0
- Plant response rating (0 to 100), Ragweed (common ragweed; Postemergence, 62 g ai/ha): 0
- Plant response rating, Ragweed (common ragweed; [5]): 0
- Plant response rating, Ragweed (common ragweed; [6]): 0
- Plant response rating (0 to 100), Cupgrass, Woolly (woolly cupgrass; Postemergence, 31 g ai/ha): 0
- Plant response rating, Cupgrass, Woolly (woolly cupgrass; [7]): 0
- Plant response rating, Cupgrass, Woolly (woolly cupgrass; [5]): 0
- Plant response rating, Cupgrass, Woolly (woolly cupgrass; [6]): 0
- Plant response rating (0 to 100), Bromegrass, Downy (downy brome; Postemergence, 31 g ai/ha): 0
- Plant response rating, Bromegrass, Downy (downy brome; Postemergence, 62 g ai/ha): 0
- Plant response rating, Bromegrass, Downy (downy brome; Postemergence, 125 g ai/ha): 10
- Plant response rating, Bromegrass, Downy (downy brome; Postemergence, 250 g ai/ha): 45
- Plant response rating (0 to 100), Foxtail, Green (green foxtail; Postemergence, 31 g ai/ha): 0
- Plant response rating, Foxtail, Green (green foxtail; [7]): 0
- Plant response rating, Foxtail, Green (green foxtail; [5]): 30
- Plant response rating, Foxtail, Green (green foxtail; [6]): 90
- Plant response rating (0 to 100), Pigweed (pigweed; Postemergence, 31 g ai/ha): 0
- Plant response rating (0 to 100), Pigweed (pigweed; Postemergence, 62 g ai/ha): 0
- Plant response rating, Pigweed (pigweed; [5]): 0
- Plant response rating, Pigweed (pigweed; [6]): 0
- Plant response rating, Crabgrass, Large (crabgrass; Postemergence, 125 g ai/ha): 80
- Crabgrass, Large plant response rating (crabgrass; [10]): 90
- Crabgrass, Large plant response rating (crabgrass; [11]): 40
- Plant response rating, Crabgrass, Large (crabgrass; Preemergence, 500 g ai/ha): 100
- Plant response rating (0 to 100), Lambsquarters (lambsquarters; Postemergence, 31 g ai/ha): 0
- Plant response rating, Lambsquarters (lambsquarters; [7]): 0
- Plant response rating, Lambsquarters (lambsquarters; [5]): 0
- Plant response rating, Lambsquarters (lambsquarters; [6]): 0

SMILES: Cc1cc([S+]([O-])Cc2c(C(F)(F)F)nn(C)c2OCC(F)(F)F)[n+]([O-])cc1Cl (stereo not shown) [Compound 70]
- Surinam Grass plant response rating (Surinam grass; [12]): 85
- Surinam Grass plant response rating (Surinam grass; [13]): 90
- Plant response rating, Surinam Grass (Surinam grass; [14]): 65
- Surinam Grass plant response rating (Surinam grass; [15]): 100
- Blackgrass plant response rating (blackgrass; [12]): 100
- Blackgrass plant response rating (blackgrass; [13]): 100
- Plant response rating, Blackgrass (blackgrass; [14]): 100
- Blackgrass plant response rating (blackgrass; [15]): 100
- Plant response rating, Ducksalad (duck salad; [8]): 85
- Plant response rating, Ducksalad (duck salad; [9]): 100
- Plant response rating, Barnyardgrass (barnyardgrass [1]; Postemergence, 125 g ai/ha): 70
- Barnyardgrass plant response rating (barnyardgrass [1]; [10]): 90
- Barnyardgrass plant response rating (barnyardgrass [1]; [11]): 80
- Plant response rating, Barnyardgrass (barnyardgrass [1]; Preemergence, 500 g ai/ha): 100
- Soybean plant response rating (soybean; [12]): 30
- Soybean plant response rating (soybean; [13]): 80
- Soybean plant response rating (soybean; [15]): 85
- Plant response rating, Barnyardgrass (barnyardgrass [2]; [8]): 0
- Plant response rating, Barnyardgrass (barnyardgrass [2]; [9]): 95
- Velvetleaf plant response rating (velvetleaf [3]; [12]): 85
- Velvetleaf plant response rating (velvetleaf [3]; [13]): 100
- Plant response rating, Velvetleaf (velvetleaf [3]; [14]): 35
- Velvetleaf plant response rating (velvetleaf [3]; [15]): 100
- Plant response rating, Velvetleaf (velvetleaf [4]; Postemergence, 125 g ai/ha): 60
- Velvetleaf plant response rating (velvetleaf [4]; [10]): 70
- Velvetleaf plant response rating (velvetleaf [4]; [11]): 40
- Plant response rating, Velvetleaf (velvetleaf [4]; Preemergence, 500 g ai/ha): 100
- Plant response rating, Foxtail, Giant (giant foxtail; Postemergence, 125 g ai/ha): 60
- Foxtail, Giant plant response rating (giant foxtail; [10]): 90
- Foxtail, Giant plant response rating (giant foxtail; [11]): 100
- Plant response rating, Foxtail, Giant (giant foxtail; Preemergence, 500 g ai/ha): 100
- Ragweed plant response rating (common ragweed; [12]): 80
- Ragweed plant response rating (common ragweed; [13]): 80
- Plant response rating, Ragweed (common ragweed; [14]): 0
- Ragweed plant response rating (common ragweed; [15]): 100
- Cupgrass, Woolly plant response rating (woolly cupgrass; [12]): 98
- Cupgrass, Woolly plant response rating (woolly cupgrass; [13]): 100
- Plant response rating, Cupgrass, Woolly (woolly cupgrass; [14]): 95
- Cupgrass, Woolly plant response rating (woolly cupgrass; [15]): 100
- Bromegrass, Downy plant response rating (downy brome; [12]): 80
- Bromegrass, Downy plant response rating (downy brome; [13]): 100
- Bromegrass, Downy plant response rating (downy brome; [15]): 100
- Foxtail, Green plant response rating (green foxtail; [12]): 100
- Foxtail, Green plant response rating (green foxtail; [13]): 100
- Plant response rating, Foxtail, Green (green foxtail; [14]): 100
- Foxtail, Green plant response rating (green foxtail; [15]): 100
- Pigweed plant response rating (pigweed; [12]): 100
- Pigweed plant response rating (pigweed; [13]): 100
- Plant response rating, Pigweed (pigweed; [14]): 100
- Pigweed plant response rating (pigweed; [15]): 100
- Plant response rating, Crabgrass, Large (crabgrass; Postemergence, 125 g ai/ha): 50
- Crabgrass, Large plant response rating (crabgrass; [10]): 80
- Crabgrass, Large plant response rating (crabgrass; [11]): 90
- Plant response rating, Crabgrass, Large (crabgrass; Preemergence, 500 g ai/ha): 100
- Lambsquarters plant response rating (lambsquarters; [12]): 100
- Lambsquarters plant response rating (lambsquarters; [13]): 100
- Plant response rating, Lambsquarters (lambsquarters; [14]): 100
- Lambsquarters plant response rating (lambsquarters; [15]): 100
